Values of other authors as cited in patent US11439618B2, “Compositions and methods for lowering triglycerides” (Amarin Pharmaceuticals Ireland Limited, priority 2009, dated 2022).

Conditions: previous data; standard deviation of 15%; cited from earlier work

## CC/C=C\C/C=C\C/C=C\C/C=C\C/C=C\CCCC(=O)OCC [Ethyl-EPA, all-cis eicosa-5,8,11,14,17-pentaenoic acid ethyl ester]
  Difference in percent change from baseline in fasting LDL-C between study drug and placebo: 2.2%
